Measured values as given in paper PMC3161979, “MrkH, a Novel c-di-GMP-Dependent Transcriptional Activator, Controls Klebsiella pneumoniae Biofilm Formation by Regulating Type 3 Fimbriae Expression” (PLoS Pathogens, 2011).

Target: T1, MrkH (MrkH-8×His) (Klebsiella pneumoniae, UniProt G3FT00)
T1 construct: full length, 234 aa, C-terminal 8×His tag, expressed from pET11a in E. coli BL21(DE3), about 28 kDa
Experiment: EMSA with […]-labelled mrkA promoter fragment
Format: biochemical
Conditions: 200 µM c-di-GMP; pH 7.4; 30°C; 0-500 nM protein; allosteric activator of DNA binding; indirect read-out, no direct c-di-GMP binding measured

T1 sequence (G3FT00 entry or part of it): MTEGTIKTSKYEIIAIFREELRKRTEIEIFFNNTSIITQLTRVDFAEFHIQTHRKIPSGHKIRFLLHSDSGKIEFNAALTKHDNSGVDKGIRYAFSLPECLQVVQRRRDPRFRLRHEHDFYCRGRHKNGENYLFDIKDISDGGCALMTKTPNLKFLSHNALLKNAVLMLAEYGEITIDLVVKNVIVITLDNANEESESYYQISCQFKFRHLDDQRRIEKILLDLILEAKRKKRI

SMILES: Nc1nc2c(ncn2[C@@H]2O[C@@H]3COP(=O)(O)O[C@H]4[C@@H](O)[C@H](n5cnc6c(=O)[nH]c(N)nc65)O[C@@H]4COP(=O)(O)O[C@H]3[C@H]2O)c(=O)[nH]1 [c-di-GMP]
- EMSA with 32P-labelled mrkA promoter fragment: In the presence of c-di-GMP, the majority of the DNA was shifted
